Measurements from BindingDB's records for doi:10.1021/jm990447m (Metabasis Therapeutics, 2000).

Assay: Evaluated for the inhibition of porcine heart or human L-type Adenosine 5'-monophosphate deaminase (AMPDA)
CCCCCCCn1cnc2c1N=CNCC2O (stereo unspecified) [3-Heptyl-3,6,7,8-tetrahydro-imidazo[4,5-d][1,3]diazepin-8-ol] gave a Ki of 10 µM.
O=C(O)CCCCCCCn1cnc2c1N=CNCC2O (stereo unspecified) [8-(8-Hydroxy-7,8-dihydro-6H-imidazo[4,5-d][1,3]diazepin-3-yl)-octanoic acid] showed a Ki of 8 µM.
Work on COC(=O)CCCCCCCn1cnc2c1N=CNCC2O (stereo unspecified) [8-(8-Hydroxy-7,8-dihydro-6H-imidazo[4,5-d][1,3]diazepin-3-yl)-octanoic acid methyl ester] yielded a Ki of 20 µM.
With CCCCCCCCn1cnc2c1N=CNCC2O (stereo unspecified) [3-Octyl-3,6,7,8-tetrahydro-imidazo[4,5-d][1,3]diazepin-8-ol 0.25H2O] the Ki was 18 µM.
N#CCCCCCCn1cnc2c1N=CNCC2O (stereo unspecified) [7-(8-Hydroxy-7,8-dihydro-6H-imidazo[4,5-d][1,3]diazepin-3-yl)-heptanenitrile] showed a Ki of 170 µM.
Work on O=C(O)CCCOCn1cnc2c1N=CNCC2O (stereo unspecified) [Sodium; 4-(8-hydroxy-7,8-dihydro-6H-imidazo[4,5-d][1,3]diazepin-3-ylmethoxy)-butyrate H2O] yielded a Ki of 85 µM.
